Test results reported in paper PMC6222410, “Design, Synthesis and Docking Studies of Novel Macrocyclic Pentapeptides as Anticancer Multi-Targeted Kinase Inhibitors” (Molecules : A Journal of Synthetic Chemistry and Natural …, 2018).
Where two headings read alike, the source gives them in different places.

Assays:
[1] = tested on: MCF-7 cell line; experiment: In vitro cytotoxicity on MCF-7 cell line; type: cell-based; settings: MCF-7 human breast cancer cells; concentration inhibiting cell viability by 50%; mean of three values; read-out: IC50 (Mean ± SEM) MCF-7
Text: (§1) In vitro bioassay on human cancer cell lines was adopted against two cancer cell lines (MCF-7 and HepG-2). HepG2, human hepatocellular carcinoma and MCF-7, human breast cancer cell lines were obtained from Sigma-Aldrich Chemie GmbH, Taufkirchen, Germany.

[2] = tested on: HepG-2 cell line; experiment: In vitro cytotoxicity on HepG-2 cell line; type: cell-based; settings: HepG-2 human hepatocellular carcinoma cells, concentration inhibiting cell viability by 50%, mean of three values, read-out: IC50 (Mean ± SEM) HepG-2
Text: as §1

[3] = target: EGFR (Homo sapiens, UniProt P00533); experiment: In vitro kinase inhibition, ELISA assay; type: biochemical; settings: mean of three values, read-out: IC50 (Mean±SEM) EGFR
Description: The in vitro enzyme inhibition determination for compound 5c was carried out in confirmatory diagnostic unit, Vacsera, Egypt. […]

[4] = target: PDGFRβ (Homo sapiens, UniProt P09619); experiment: In vitro kinase inhibition, ELISA assay; type: biochemical; settings: mean of three values, read-out: IC50 (Mean±SEM) PDGFRβ
[5] = target: CDK-2 (Homo sapiens, UniProt P24941); experiment: In vitro kinase inhibition, ELISA assay; type: biochemical; settings: mean of three values, read-out: IC50 (Mean±SEM) CDK-2

Sequence of EGFR (P00533 25-1210): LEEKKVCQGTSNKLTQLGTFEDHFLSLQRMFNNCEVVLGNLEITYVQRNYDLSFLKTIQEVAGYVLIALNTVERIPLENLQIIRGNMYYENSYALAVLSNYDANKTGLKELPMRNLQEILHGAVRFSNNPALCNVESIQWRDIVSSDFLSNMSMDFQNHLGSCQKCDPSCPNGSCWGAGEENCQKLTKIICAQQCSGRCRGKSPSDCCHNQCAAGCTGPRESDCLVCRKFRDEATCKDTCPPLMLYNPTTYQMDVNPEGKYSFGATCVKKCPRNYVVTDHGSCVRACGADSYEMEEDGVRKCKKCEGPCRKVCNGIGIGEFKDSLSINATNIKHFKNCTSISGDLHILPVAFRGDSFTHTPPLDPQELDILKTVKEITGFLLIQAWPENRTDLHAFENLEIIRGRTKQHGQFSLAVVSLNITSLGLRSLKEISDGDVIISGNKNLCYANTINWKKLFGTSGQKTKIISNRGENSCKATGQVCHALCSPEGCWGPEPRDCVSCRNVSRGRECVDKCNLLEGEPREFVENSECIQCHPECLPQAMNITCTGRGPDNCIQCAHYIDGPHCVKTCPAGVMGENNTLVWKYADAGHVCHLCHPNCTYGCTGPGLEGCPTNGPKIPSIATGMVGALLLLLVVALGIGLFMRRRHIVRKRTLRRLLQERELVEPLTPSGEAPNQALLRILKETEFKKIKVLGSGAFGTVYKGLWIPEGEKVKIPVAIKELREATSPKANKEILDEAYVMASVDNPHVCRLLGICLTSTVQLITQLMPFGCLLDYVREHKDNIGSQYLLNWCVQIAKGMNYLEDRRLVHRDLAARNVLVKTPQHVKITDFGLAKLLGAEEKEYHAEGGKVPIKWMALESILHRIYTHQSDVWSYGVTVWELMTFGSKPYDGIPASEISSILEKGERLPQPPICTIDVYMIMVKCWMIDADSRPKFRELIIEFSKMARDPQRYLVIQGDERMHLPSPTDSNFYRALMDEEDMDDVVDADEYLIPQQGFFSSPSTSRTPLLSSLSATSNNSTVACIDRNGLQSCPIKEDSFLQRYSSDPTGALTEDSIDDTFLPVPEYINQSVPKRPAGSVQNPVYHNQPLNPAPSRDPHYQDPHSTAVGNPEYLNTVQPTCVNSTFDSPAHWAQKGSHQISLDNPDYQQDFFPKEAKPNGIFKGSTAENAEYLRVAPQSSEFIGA
Sequence of PDGFRβ (P09619 33-1106): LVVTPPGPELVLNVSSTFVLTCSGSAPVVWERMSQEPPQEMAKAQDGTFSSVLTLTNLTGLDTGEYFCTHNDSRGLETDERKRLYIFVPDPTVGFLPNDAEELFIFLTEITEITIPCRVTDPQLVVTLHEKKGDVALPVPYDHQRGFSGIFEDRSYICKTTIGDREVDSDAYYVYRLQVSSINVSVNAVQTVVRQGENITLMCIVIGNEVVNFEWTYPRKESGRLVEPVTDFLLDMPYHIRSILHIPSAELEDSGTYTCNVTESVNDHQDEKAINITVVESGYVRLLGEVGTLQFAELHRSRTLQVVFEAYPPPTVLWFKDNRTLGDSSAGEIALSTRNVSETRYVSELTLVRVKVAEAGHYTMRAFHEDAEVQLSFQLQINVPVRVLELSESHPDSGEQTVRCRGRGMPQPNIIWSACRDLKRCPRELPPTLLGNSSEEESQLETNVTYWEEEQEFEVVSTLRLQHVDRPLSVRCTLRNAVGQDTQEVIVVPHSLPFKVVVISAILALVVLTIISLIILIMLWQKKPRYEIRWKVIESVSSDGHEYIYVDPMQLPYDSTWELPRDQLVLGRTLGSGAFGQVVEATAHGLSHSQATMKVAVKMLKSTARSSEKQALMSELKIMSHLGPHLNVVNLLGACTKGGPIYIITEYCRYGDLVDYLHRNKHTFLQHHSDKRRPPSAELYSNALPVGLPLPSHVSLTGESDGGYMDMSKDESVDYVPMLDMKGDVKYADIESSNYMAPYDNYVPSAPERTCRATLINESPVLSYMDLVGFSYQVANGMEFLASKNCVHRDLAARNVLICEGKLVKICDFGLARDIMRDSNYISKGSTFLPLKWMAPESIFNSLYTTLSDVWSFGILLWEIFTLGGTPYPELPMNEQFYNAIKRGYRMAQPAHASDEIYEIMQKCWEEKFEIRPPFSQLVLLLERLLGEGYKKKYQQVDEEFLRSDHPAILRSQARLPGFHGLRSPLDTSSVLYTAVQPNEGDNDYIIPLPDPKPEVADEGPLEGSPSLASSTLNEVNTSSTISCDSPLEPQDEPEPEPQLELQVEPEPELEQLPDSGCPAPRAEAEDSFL

Structure (SMILES) | IC50 [1] | IC50 [2] | melting point | IC50 ([2]; HepG2) | IC50 [3] | IC50 [4] | IC50 [5]
CC[C@H](C)[C@@H]1NC(=O)c2cccc(n2)C(=O)N[C@@H]([C@@H](C)CC)C(=O)N[C@@H]([C@@H](C)CC)C(=O)N[C@H](C(=O)O)CCCCNC(=O)[C@H]([C@@H](C)CC)NC1=O [Compound 5a, Cyclo-(N^α-dipicolinoyl)-bis [L-ILe-L-ILe]-L-Lys-OH] | 12.7 ± 2.4 µM | 11.2 ± 1.95 µM | 108 to 110 °C | – | – | – | –
CC[C@H](C)[C@@H]1NC(=O)c2cccc(n2)C(=O)N[C@@H]([C@@H](C)CC)C(=O)N[C@@H]([C@@H](C)CC)C(=O)N[C@H](C(=O)OC)CCCCNC(=O)[C@H]([C@@H](C)CC)NC1=O [Compound 4a, Cyclo-(N^α-dipicolinoyl)-bis-[L-ILe-L-ILe]-L-Lys-OMe] | > 100 µM | 11.6 ± 2.7 µM | 77 to 79 °C | – | – | – | –
CC[C@H](C)[C@H](NC(=O)[C@H](Cc1ccccc1)NC(=O)c1cccc(C(=O)N[C@@H](Cc2ccccc2)C(=O)N[C@H](C(=O)OC)[C@@H](C)CC)n1)C(=O)OC [Compound 2c, N^α-Dipicolinoyl-bis[L-Phe-L-ILe-methyl ester]] | > 100 µM | 35.5 ± 1.83 µM | 150 to 152 °C | – | – | – | –
CC[C@H](C)[C@H](NC(=O)c1cccc(C(=O)N[C@H](C(=O)N[C@@H](Cc2ccccc2)C(=O)OC)[C@@H](C)CC)n1)C(=O)N[C@@H](Cc1ccccc1)C(=O)OC [Compound 2b, N^α-Dipicolinoyl-bis[L-ILe-L-Phe-methyl ester]] | 32.6 ± 1.5 µM | 15.8 ± 1.66 µM | 122 to 124 °C | – | – | – | –
CC[C@H](C)[C@@H]1NC(=O)c2cccc(n2)C(=O)N[C@@H]([C@@H](C)CC)C(=O)N[C@@H](Cc2ccccc2)C(=O)N[C@H](C(=O)OC)CCCCNC(=O)[C@H](Cc2ccccc2)NC1=O [Compound 4b, Cyclo-(N^α-Dipicolinoyl)-bis-[L-ILe-L-Phe]-L-Lys-OMe] | 10.5 ± 1.33 µM | 10.2 ± 2.2 µM | 104 to 106 °C | – | – | – | –
CC[C@H](C)[C@@H]1NC(=O)c2cccc(n2)C(=O)N[C@@H]([C@@H](C)CC)C(=O)N[C@@H]([C@@H](C)CC)C(=O)N[C@H](C(=O)NN)CCCCNC(=O)[C@H]([C@@H](C)CC)NC1=O [Compound 6a, Cyclo-(N^α-dipicolinoyl)-bis[L-ILe-L-ILe]-L-Lys-NHNH2] | 11.8 ± 1.62 µM | 12.4 ± 1.3 µM | 180 to 182 °C | – | – | – | –
CC[C@H](C)[C@H](NC(=O)[C@H](Cc1ccccc1)NC(=O)c1cccc(C(=O)N[C@@H](Cc2ccccc2)C(=O)N[C@H](C(=O)O)[C@@H](C)CC)n1)C(=O)O [Compound 3c, N^α-Dipicolinoyl-bis[L-Phe-L-ILe]acid] | 29.6 ± 2.06 µM | 26.6 ± 1.85 µM | 202 to 204 °C | – | – | – | –
CC[C@H](C)[C@H](NC(=O)[C@@H](NC(=O)c1cccc(C(=O)N[C@H](C(=O)N[C@H](C(=O)O)[C@@H](C)CC)[C@@H](C)CC)n1)[C@@H](C)CC)C(=O)O [Compound 3a, N^α-Dipicolinoyl-bis[L-ILe-L-ILe]acid] | > 100 µM | 26 ± 2.35 µM | 178 to 180 °C | – | – | – | –
O=c1[nH]cc(F)c(=O)[nH]1 [5-Fluorouracil®, 5-Fluorouracil, reference compound] | – | – | – | 43.8 ± 1.84 µM | – | – | –
CC[C@H](C)[C@H](NC(=O)c1cccc(C(=O)N[C@H](C(=O)N[C@@H](Cc2ccccc2)C(=O)O)[C@@H](C)CC)n1)C(=O)N[C@@H](Cc1ccccc1)C(=O)O [Compound 3b, N^α-Dipicolinoyl-bis[L-ILe-L-Phe]acid] | 25.3 ± 1.18 µM | 13.5 ± 1.45 µM | 184 to 186 °C | – | – | – | –
CC[C@H](C)[C@H](NC(=O)c1cccc(C(=O)N[C@H](C(=O)N[C@H](C(=O)OC)[C@@H](C)CC)[C@@H](C)CC)n1)C(=O)N[C@H](C(=O)OC)[C@@H](C)CC [Compound 2a, N^α-Dipicolinoyl-bis[L-ILe-L-ILe-methyl ester]] | 31.6 ± 1.3 µM | 20.4 ± 1.36 µM | 106 to 108 °C | – | – | – | –
CC[C@H](C)[C@@H]1NC(=O)[C@H](Cc2ccccc2)NC(=O)c2cccc(n2)C(=O)N[C@@H](Cc2ccccc2)C(=O)N[C@@H]([C@@H](C)CC)C(=O)N[C@H](C(=O)O)CCCCNC1=O [Compound 5c, Cyclo-(N^α-dipicolinoyl)-bis [L-Phe-L-ILe]-L-Lys-OH] | 9.41 ± 1.25 µM | 7.53 ± 1.33 µM | 178 to 180 °C | – | 0.14 µM | 0.08 µM | 0.06 µM
CC[C@H](C)[C@@H]1NC(=O)[C@H](Cc2ccccc2)NC(=O)c2cccc(n2)C(=O)N[C@@H](Cc2ccccc2)C(=O)N[C@@H]([C@@H](C)CC)C(=O)N[C@H](C(=O)NN)CCCCNC1=O [Compound 6c, Cyclo-(N^α-Dipicolinoyl)-bis[L-Phe-L-ILe]-L-Lys-NHNH2] | > 100 µM | 12.1 ± 1.68 µM | 208 to 210 °C | – | – | – | –
CC[C@H](C)[C@@H]1NC(=O)c2cccc(n2)C(=O)N[C@@H]([C@@H](C)CC)C(=O)N[C@@H](Cc2ccccc2)C(=O)N[C@H](C(=O)O)CCCCNC(=O)[C@H](Cc2ccccc2)NC1=O [Compound 5b, Cyclo-(N^α-dipicolinoyl)-bis [L-ILe-L-Phe]-L-Lys-OH] | 11.3 ± 1.15 µM | 10.1 ± 2.05 µM | 128 to 130 °C | – | – | – | –
CC[C@H](C)[C@@H]1NC(=O)[C@H](Cc2ccccc2)NC(=O)c2cccc(n2)C(=O)N[C@@H](Cc2ccccc2)C(=O)N[C@@H]([C@@H](C)CC)C(=O)N[C@H](C(=O)OC)CCCCNC1=O [Compound 4c, Cyclo-(N^α-Dipicolinoyl)-bis-[L-Phe-L-ILe]-L-Lys-OMe] | 29.2 ± 1.39 µM | 18.8 ± 1.47 µM | 140 to 142 °C | – | – | – | –
CC[C@H](C)[C@@H]1NC(=O)c2cccc(n2)C(=O)N[C@@H]([C@@H](C)CC)C(=O)N[C@@H](Cc2ccccc2)C(=O)N[C@H](C(=O)NN)CCCCNC(=O)[C@H](Cc2ccccc2)NC1=O [Compound 6b, Cyclo-(N^α-dipicolinoyl)-bis[L-ILe-L-Phe]-L-Lys-NHNH2] | 10.9 ± 1.1 µM | 11.5 ± 1.7 µM | 161 to 163 °C | – | – | – | –
